{"source": "patent US11059773B2", "about": "“Type-B fenolamine crystal form, preparation method, composition and use thereof” (INSTITUTE OF MATARIA MEDICA, CHINESE ACADEMY OF MEDICAL …, priority 2017, dated 2021)", "key": {"[1]": {"assay": "Dissolution of type-B fenolamine crystal form in six solvent systems", "assay_type": "physicochemical", "protocol": "The solubility was evaluated by using a type-B fenolamine crystal form sample (fenolamine:ethanol=1:0.2) having a crystallized ethanol content of 2.0%.\nThe solvent systems were selected by: (1) referring to solvent systems used in the dissolution determination method in the Appendix of the Pharmacopoeia; (2) referring to the digestive solution pH in various organs of an organism; (3) improving the solubility of water-insoluble drugs. Based the above three references, solvent systems with six pH values were set up: a 0.1 N hydrochloric acid solution with pH 1.2; an acetate buffer solution with pH 4.5; a phosphate buffer solution with pH 6.5; an water solution with pH 6.7; a 0.2% SDS solution with pH 7.0; a 0.5% SDS solution with pH 7.3.\nMeasurement was carried out according to the solubility determination method (“Guidelines for Dissolution Test Technique of General Oral Solid Preparations (Draft)”, October 2012, the Drug Review Center). With the percentage of the samples dissolved by mass calculated from the absorbance data, solubility curves were respectively drawn with time as abscissa and dissolved contents as ordinate and shown in FIG. 10."}, "[2]": {"assay": "Stability of type-B fenolamine crystal form solid (influencing factors: high temperature, high humidity, illumination)", "assay_type": "physicochemical", "conditions": "starting ethanol content 2.58%", "protocol": "Type-B fenolamine crystal form samples (having a crystallized ethanol content of 2.58%) were placed in open clean watch glasses, and kept under conditions of a high temperature of 60° C., a high temperature of 40° C., and 25° C., a relative humidity of 90%±5%, and illumination at 4500 lx±500 lx for 10 days, and samples were taken on Days 0, 5, and 10. Powder X-ray diffraction (with a resultant pattern consistent to that in FIG. 1) and gas chromatography means were used for analysis."}}, "note": "“Also recorded” adds a separate entry of the source."}
{"smiles": "COc1ccc(OC)c(/C(=C\\c2ccc(O)c(OC)c2)C(=O)NCCc2ccc(O)cc2)c1", "note": "[type-B fenolamine crystal form, trans-2-(2,5-dimethoxyphenyl)-3-(4-hydroxy-3-methoxyphenyl)-N-(4-hydroxyphenylethyl) acrylamide]", "values": [{"measurement": "Dissolution (percentage of sample dissolved by mass)", "setting": "[1]; 0.1N hydrochloric acid pH 1.2, 5 min", "result": 0.00, "unit": "%"}, {"measurement": "Dissolution (percentage of sample dissolved by mass)", "setting": "[1]; 0.1N hydrochloric acid pH 1.2, 15 min", "result": 0.00, "unit": "%"}, {"measurement": "Dissolution (percentage of sample dissolved by mass)", "setting": "[1]; 0.1N hydrochloric acid pH 1.2, 30 min", "result": 2.35, "unit": "%"}, {"measurement": "Dissolution (percentage of sample dissolved by mass)", "setting": "[1]; 0.1N hydrochloric acid pH 1.2, 60 min", "result": 5.75, "unit": "%"}, {"measurement": "Dissolution (percentage of sample dissolved by mass)", "setting": "[1]; 0.1N hydrochloric acid pH 1.2, 120 min", "result": 11.42, "unit": "%"}, {"measurement": "Dissolution (percentage of sample dissolved by mass)", "setting": "[1]; 0.1N hydrochloric acid pH 1.2, 180 min", "result": 14.07, "unit": "%"}, {"measurement": "Dissolution (percentage of sample dissolved by mass)", "setting": "[1]; 0.1N hydrochloric acid pH 1.2, 240 min", "result": 18.54, "unit": "%"}, {"measurement": "Dissolution (percentage of sample dissolved by mass)", "setting": "[1]; 0.1N hydrochloric acid pH 1.2, 300 min", "result": 20.04, "unit": "%"}, {"measurement": "Dissolution (percentage of sample dissolved by mass)", "setting": "[1]; 0.1N hydrochloric acid pH 1.2, 360 min", "result": 23.69, "unit": "%"}, {"measurement": "Dissolution (percentage of sample dissolved by mass)", "setting": "[1]; 0.1N hydrochloric acid pH 1.2, 420 min", "result": 25.07, "unit": "%"}, {"measurement": "Dissolution (percentage of sample dissolved by mass)", "setting": "[1]; 0.2% SDS pH 7.0, 5 min", "result": 21.57, "unit": "%"}, {"measurement": "Dissolution (percentage of sample dissolved by mass)", "setting": "[1]; 0.2% SDS pH 7.0, 15 min", "result": 32.50, "unit": "%"}, {"measurement": "Dissolution (percentage of sample dissolved by mass)", "setting": "[1]; 0.2% SDS pH 7.0, 30 min", "result": 42.43, "unit": "%"}, {"measurement": "Dissolution (percentage of sample dissolved by mass)", "setting": "[1]; 0.2% SDS pH 7.0, 60 min", "result": 59.66, "unit": "%"}, {"measurement": "Dissolution (percentage of sample dissolved by mass)", "setting": "[1]; 0.2% SDS pH 7.0, 120 min", "result": 91.98, "unit": "%"}, {"measurement": "Dissolution (percentage of sample dissolved by mass)", "setting": "[1]; 0.2% SDS pH 7.0, 180 min", "result": 92.35, "unit": "%"}, {"measurement": "Dissolution (percentage of sample dissolved by mass)", "setting": "[1]; 0.2% SDS pH 7.0, 240 min", "result": 95.75, "unit": "%"}, {"measurement": "Dissolution (percentage of sample dissolved by mass)", "setting": "[1]; 0.2% SDS pH 7.0, 300 min", "result": 95.82, "unit": "%"}, {"measurement": "Dissolution (percentage of sample dissolved by mass)", "setting": "[1]; 0.2% SDS pH 7.0, 360 min", "result": 95.90, "unit": "%"}, {"measurement": "Dissolution (percentage of sample dissolved by mass)", "setting": "[1]; 0.2% SDS pH 7.0, 420 min", "result": 95.93, "unit": "%"}, {"measurement": "Dissolution (percentage of sample dissolved by mass)", "setting": "[1]; 0.5% SDS pH 7.3, 5 min", "result": 35.04, "unit": "%"}, {"measurement": "Dissolution (percentage of sample dissolved by mass)", "setting": "[1]; 0.5% SDS pH 7.3, 15 min", "result": 55.30, "unit": "%"}, {"measurement": "Dissolution (percentage of sample dissolved by mass)", "setting": "[1]; 0.5% SDS pH 7.3, 30 min", "result": 73.32, "unit": "%"}, {"measurement": "Dissolution (percentage of sample dissolved by mass)", "setting": "[1]; 0.5% SDS pH 7.3, 60 min", "result": 86.90, "unit": "%"}, {"measurement": "Dissolution (percentage of sample dissolved by mass)", "setting": "[1]; 0.5% SDS pH 7.3, 120 min", "result": 97.35, "unit": "%"}, {"measurement": "Dissolution (percentage of sample dissolved by mass)", "setting": "[1]; 0.5% SDS pH 7.3, 180 min", "result": 97.69, "unit": "%"}, {"measurement": "Dissolution (percentage of sample dissolved by mass)", "setting": "[1]; 0.5% SDS pH 7.3, 240 min", "result": 98.40, "unit": "%"}, {"measurement": "Dissolution (percentage of sample dissolved by mass)", "setting": "[1]; 0.5% SDS pH 7.3, 300 min", "result": 98.47, "unit": "%"}, {"measurement": "Dissolution (percentage of sample dissolved by mass)", "setting": "[1]; 0.5% SDS pH 7.3, 360 min", "result": 98.51, "unit": "%"}, {"measurement": "Dissolution (percentage of sample dissolved by mass)", "setting": "[1]; 0.5% SDS pH 7.3, 420 min", "result": 100.00, "unit": "%"}, {"measurement": "Dissolution (percentage of sample dissolved by mass)", "setting": "[1]; Acetate buffer pH 4.5, 5 min", "result": 0.00, "unit": "%"}, {"measurement": "Dissolution (percentage of sample dissolved by mass)", "setting": "[1]; Acetate buffer pH 4.5, 15 min", "result": 0.00, "unit": "%"}, {"measurement": "Dissolution (percentage of sample dissolved by mass)", "setting": "[1]; Acetate buffer pH 4.5, 30 min", "result": 0.49, "unit": "%"}, {"measurement": "Dissolution (percentage of sample dissolved by mass)", "setting": "[1]; Acetate buffer pH 4.5, 60 min", "result": 2.57, "unit": "%"}, {"measurement": "Dissolution (percentage of sample dissolved by mass)", "setting": "[1]; Acetate buffer pH 4.5, 120 min", "result": 7.54, "unit": "%"}, {"measurement": "Dissolution (percentage of sample dissolved by mass)", "setting": "[1]; Acetate buffer pH 4.5, 180 min", "result": 11.34, "unit": "%"}, {"measurement": "Dissolution (percentage of sample dissolved by mass)", "setting": "[1]; Acetate buffer pH 4.5, 240 min", "result": 15.82, "unit": "%"}, {"measurement": "Dissolution (percentage of sample dissolved by mass)", "setting": "[1]; Acetate buffer pH 4.5, 300 min", "result": 19.51, "unit": "%"}, {"measurement": "Dissolution (percentage of sample dissolved by mass)", "setting": "[1]; Acetate buffer pH 4.5, 360 min", "result": 20.15, "unit": "%"}, {"measurement": "Dissolution (percentage of sample dissolved by mass)", "setting": "[1]; Acetate buffer pH 4.5, 420 min", "result": 20.71, "unit": "%"}, {"measurement": "Dissolution (percentage of sample dissolved by mass)", "setting": "[1]; Phosphate buffer pH 6.5, 5 min", "result": 49.51, "unit": "%"}, {"measurement": "Dissolution (percentage of sample dissolved by mass)", "setting": "[1]; Phosphate buffer pH 6.5, 15 min", "result": 49.81, "unit": "%"}, {"measurement": "Dissolution (percentage of sample dissolved by mass)", "setting": "[1]; Phosphate buffer pH 6.5, 30 min", "result": 49.89, "unit": "%"}, {"measurement": "Dissolution (percentage of sample dissolved by mass)", "setting": "[1]; Phosphate buffer pH 6.5, 60 min", "result": 49.96, "unit": "%"}, {"measurement": "Dissolution (percentage of sample dissolved by mass)", "setting": "[1]; Phosphate buffer pH 6.5, 120 min", "result": 51.08, "unit": "%"}, {"measurement": "Dissolution (percentage of sample dissolved by mass)", "setting": "[1]; Phosphate buffer pH 6.5, 180 min", "result": 51.72, "unit": "%"}, {"measurement": "Dissolution (percentage of sample dissolved by mass)", "setting": "[1]; Phosphate buffer pH 6.5, 240 min", "result": 51.87, "unit": "%"}, {"measurement": "Dissolution (percentage of sample dissolved by mass)", "setting": "[1]; Phosphate buffer pH 6.5, 300 min", "result": 53.32, "unit": "%"}, {"measurement": "Dissolution (percentage of sample dissolved by mass)", "setting": "[1]; Phosphate buffer pH 6.5, 360 min", "result": 53.40, "unit": "%"}, {"measurement": "Dissolution (percentage of sample dissolved by mass)", "setting": "[1]; Phosphate buffer pH 6.5, 420 min", "result": 53.47, "unit": "%"}, {"measurement": "Dissolution (percentage of sample dissolved by mass)", "setting": "[1]; Water pH 6.7, 5 min", "result": 0.00, "unit": "%"}, {"measurement": "Dissolution (percentage of sample dissolved by mass)", "setting": "[1]; Water pH 6.7, 15 min", "result": 0.34, "unit": "%"}, {"measurement": "Dissolution (percentage of sample dissolved by mass)", "setting": "[1]; Water pH 6.7, 30 min", "result": 2.01, "unit": "%"}, {"measurement": "Dissolution (percentage of sample dissolved by mass)", "setting": "[1]; Water pH 6.7, 60 min", "result": 5.26, "unit": "%"}, {"measurement": "Dissolution (percentage of sample dissolved by mass)", "setting": "[1]; Water pH 6.7, 120 min", "result": 11.42, "unit": "%"}, {"measurement": "Dissolution (percentage of sample dissolved by mass)", "setting": "[1]; Water pH 6.7, 180 min", "result": 20.22, "unit": "%"}, {"measurement": "Dissolution (percentage of sample dissolved by mass)", "setting": "[1]; Water pH 6.7, 240 min", "result": 21.94, "unit": "%"}, {"measurement": "Dissolution (percentage of sample dissolved by mass)", "setting": "[1]; Water pH 6.7, 300 min", "result": 26.04, "unit": "%"}, {"measurement": "Dissolution (percentage of sample dissolved by mass)", "setting": "[1]; Water pH 6.7, 360 min", "result": 28.96, "unit": "%"}, {"measurement": "Dissolution (percentage of sample dissolved by mass)", "setting": "[1]; Water pH 6.7, 420 min", "result": 32.13, "unit": "%"}, {"measurement": "Solubility in six solvent systems imitating different pH environments in human body (in words)", "setting": "[1]; compared with type-F crystal form", "result": "good solubility; also recorded: superior to the type-F crystal form"}, {"measurement": "Stability of the crystal form (powder X-ray diffraction and gas chromatography)", "setting": "[2]; 60° C., 40° C., 25° C. with RH 90%±5%, 4500 lx±500 lx, 10 days", "result": "stable under conditions of high temperature, high humidity and light illumination"}, {"measurement": "Crystallized ethanol content after storage", "setting": "[2]; 10 days at high temperature", "result": "about 2.1%"}]}
